Like-named read-outs stand apart in the source and are kept apart here.
Experiments:
CYP2D6 = conditions: CYP2D6-inhibited mice (paroxetine 30 mg/kg i.p. 60 min before), i.v.
Protocol: (§1) ^125I-ODV was prepared to a radioactive concentration of 30 MBq/mL by the addition of saline. For metabolite analysis in CYP-inhibited mice, we produced model mice with reduced CYP3A4 or CYP2D6 activity by selective inhibition using ketoconazole or paroxetine. CYP3A4-inhibited mice were injected intraperitoneally with 50 mg/kg of ketoconazole at 60 min before injection of ^125I-ODV, and CYP2D6-inhibited mice were injected intraperitoneally with 30 mg/kg of paroxetine at 60 min before injection of ^125I-ODV. Each of three mice was administered ^125I-ODV via the tail vein (3.0 MBq/100 µL/mouse). At 30 min, the three fasted mice were euthanized under isoflurane, and each gallbladder was collected. The radioactive products in bile were analyzed by TLC using methanol/acetate at a ratio of 100:1. Bile was directly spotted onto a TLC plate.
To examine the biological distribution in CYP-inhibited mice, we produced model mice in the same way as for the analysis of metabolism in bile. At 5, 15, 30, and 60 min after ^125I-ODV injection, mice were euthanized under isoflurane (n = 4), and the same tissues were collected and quantified.

[1] = Protocol: as §1
[2] = up to seven days at 4 °C
[3] = for Biological distribution, Blood / Biological distribution, Brain / Biological distribution, Gallbladder / Biological distribution, Heart / Biological distribution, Kidney / Biological distribution, Large intestines / Biological distribution, Liver / Biological distribution, Lung / Biological distribution, Pancreas / Biological distribution, Small intestines / Biological distribution, Spleen / Biological distribution, Stomach / Biological distribution, Thyroid / Biological distribution, Urine: control normal mice, i.v.
Protocol: For biological distribution in normal mice, ^125I-ODV was prepared to a radioactivity concentration of 185 kBq/mL by adding saline. A total of 20 mice fasted for 6 hr were administered ^125I-ODV via the tail vein (18.5 kBq/100 µL/mouse). After 5, 15, 30, and 60 min, normal mice were euthanized under isoflurane anesthesia (n = 4), and the following tissues were collected: blood, brain, heart, lung, thyroid, gallbladder, liver, spleen, pancreas, stomach, small intestines, large intestines, and kidney. Tissues were weighed, and radioactivity was quantified using a γ-ray counter to calculate the %ID or percent injected dose per gram of tissue (%ID/g).

[4] = normal and CYP-inhibited mice, TLC of bile
[5] = normal mice, after 5 min of administration

CN(C)CC(c1ccc(O)c([125I])c1)C1(O)CCCCC1 (stereo not shown) [^125I-ODV, iodine-125-labeled O-desmethylvenlafaxine]
Biological distribution, Blood (CYP2D6; 5 min): 1.83 %ID/g
Biological distribution, Brain (CYP2D6; 5 min): 0.79 %ID/g
Biological distribution, Gallbladder (CYP2D6; 5 min): 1.59 %ID/g
Biological distribution, Heart (CYP2D6; 5 min): 5.19 %ID/g
Biological distribution, Kidney (CYP2D6; 5 min): 19.94 %ID/g
Biological distribution, Large intestines (CYP2D6; 5 min): 1.12 %ID/organ
Biological distribution, Liver (CYP2D6; 5 min): 7.19 %ID/g
Biological distribution, Lung (CYP2D6; 5 min): 22.13 %ID/g
Biological distribution, Pancreas (CYP2D6; 5 min): 6.02 %ID/g
Biological distribution, Small intestines (CYP2D6; 5 min): 7.24 %ID/organ
Biological distribution, Spleen (CYP2D6; 5 min): 4.62 %ID/g
Biological distribution, Stomach (CYP2D6; 5 min): 1.77 %ID/organ
Biological distribution, Thyroid (CYP2D6; 5 min): 0.05 %ID/organ
Biological distribution, Urine (CYP2D6; 5 min): 0.33 %ID/organ
Biological distribution, Blood (CYP2D6; 15 min): 1.59 %ID/g
Biological distribution, Brain (CYP2D6; 15 min): 0.82 %ID/g
Biological distribution, Gallbladder (CYP2D6; 15 min): 10.66 %ID/g
Biological distribution, Heart (CYP2D6; 15 min): 2.87 %ID/g
Biological distribution, Kidney (CYP2D6; 15 min): 17.13 %ID/g
Biological distribution, Large intestines (CYP2D6; 15 min): 0.93 %ID/organ
Biological distribution, Liver (CYP2D6; 15 min): 5.56 %ID/g
Biological distribution, Lung (CYP2D6; 15 min): 11.96 %ID/g
Biological distribution, Pancreas (CYP2D6; 15 min): 5.71 %ID/g
Biological distribution, Small intestines (CYP2D6; 15 min): 5.64 %ID/organ
Biological distribution, Spleen (CYP2D6; 15 min): 4.97 %ID/g
Biological distribution, Stomach (CYP2D6; 15 min): 2.40 %ID/organ
Biological distribution, Thyroid (CYP2D6; 15 min): 0.04 %ID/organ
Biological distribution, Urine (CYP2D6; 15 min): 6.18 %ID/organ
Biological distribution, Blood (CYP2D6; 30 min): 1.12 %ID/g
Biological distribution, Brain (CYP2D6; 30 min): 0.71 %ID/g
Biological distribution, Gallbladder (CYP2D6; 30 min): 21.66 %ID/g
Biological distribution, Heart (CYP2D6; 30 min): 1.47 %ID/g
Biological distribution, Kidney (CYP2D6; 30 min): 15.90 %ID/g
Biological distribution, Large intestines (CYP2D6; 30 min): 0.74 %ID/organ
Biological distribution, Liver (CYP2D6; 30 min): 5.08 %ID/g
Biological distribution, Lung (CYP2D6; 30 min): 7.77 %ID/g
Biological distribution, Pancreas (CYP2D6; 30 min): 3.94 %ID/g
Biological distribution, Small intestines (CYP2D6; 30 min): 10.30 %ID/organ
Biological distribution, Spleen (CYP2D6; 30 min): 2.88 %ID/g
Biological distribution, Stomach (CYP2D6; 30 min): 3.20 %ID/organ
Biological distribution, Thyroid (CYP2D6; 30 min): 0.05 %ID/organ
Biological distribution, Urine (CYP2D6; 30 min): 22.96 %ID/organ
Biological distribution, Blood (CYP2D6; 60 min): 0.67 %ID/g
Biological distribution, Brain (CYP2D6; 60 min): 0.58 %ID/g
Biological distribution, Gallbladder (CYP2D6; 60 min): 26.70 %ID/g
Biological distribution, Heart (CYP2D6; 60 min): 0.62 %ID/g
Biological distribution, Kidney (CYP2D6; 60 min): 8.33 %ID/g
Biological distribution, Large intestines (CYP2D6; 60 min): 0.67 %ID/organ
Biological distribution, Liver (CYP2D6; 60 min): 1.75 %ID/g
Biological distribution, Lung (CYP2D6; 60 min): 3.15 %ID/g
Biological distribution, Pancreas (CYP2D6; 60 min): 2.51 %ID/g
Biological distribution, Small intestines (CYP2D6; 60 min): 10.85 %ID/organ
Biological distribution, Spleen (CYP2D6; 60 min): 1.46 %ID/g
Biological distribution, Stomach (CYP2D6; 60 min): 2.20 %ID/organ
Biological distribution, Thyroid (CYP2D6; 60 min): 0.10 %ID/organ
Biological distribution, Urine (CYP2D6; 60 min): 33.92 %ID/organ
metabolites of 125I-ODV present in bile ([1]; gallbladders collected 60 min after injection): more than 99%
fraction of 125I-ODV in bile [1, 4]: not found
fractional ratio of the metabolite in bile [1, 4]: more than 99%
radiochemical purity [2]: more than 98%
Biological distribution, Blood ([3]; 5 min): 1.89 %ID/g
Biological distribution, Brain ([3]; 5 min): 0.80 %ID/g
Biological distribution, Gallbladder ([3]; 5 min): 4.31 %ID/g
Biological distribution, Heart ([3]; 5 min): 5.64 %ID/g
Biological distribution, Kidney ([3]; 5 min): 22.95 %ID/g
Biological distribution, Large intestines ([3]; 5 min): 1.32 %ID/organ
Biological distribution, Liver ([3]; 5 min): 6.91 %ID/g
Biological distribution, Lung ([3]; 5 min): 27.04 %ID/g
Biological distribution, Pancreas ([3]; 5 min): 7.87 %ID/g
Biological distribution, Small intestines ([3]; 5 min): 6.85 %ID/organ
Biological distribution, Spleen ([3]; 5 min): 9.22 %ID/g
Biological distribution, Stomach ([3]; 5 min): 2.44 %ID/organ
Biological distribution, Thyroid ([3]; 5 min): 0.06 %ID/organ
Biological distribution, Urine ([3]; 5 min): 0.63 %ID/organ
Biological distribution, Blood ([3]; 15 min): 1.31 %ID/g
Biological distribution, Brain ([3]; 15 min): 0.75 %ID/g
Biological distribution, Gallbladder ([3]; 15 min): 5.26 %ID/g
Biological distribution, Heart ([3]; 15 min): 2.71 %ID/g
Biological distribution, Kidney ([3]; 15 min): 16.37 %ID/g
Biological distribution, Large intestines ([3]; 15 min): 1.18 %ID/organ
Biological distribution, Liver ([3]; 15 min): 6.04 %ID/g
Biological distribution, Lung ([3]; 15 min): 16.75 %ID/g
Biological distribution, Pancreas ([3]; 15 min): 6.04 %ID/g
Biological distribution, Small intestines ([3]; 15 min): 7.70 %ID/organ
Biological distribution, Spleen ([3]; 15 min): 4.79 %ID/g
Biological distribution, Stomach ([3]; 15 min): 3.19 %ID/organ
Biological distribution, Thyroid ([3]; 15 min): 0.03 %ID/organ
Biological distribution, Urine ([3]; 15 min): 3.37 %ID/organ
Biological distribution, Blood ([3]; 30 min): 1.34 %ID/g
Biological distribution, Brain ([3]; 30 min): 0.73 %ID/g
Biological distribution, Gallbladder ([3]; 30 min): 24.23 %ID/g
Biological distribution, Heart ([3]; 30 min): 2.04 %ID/g
Biological distribution, Kidney ([3]; 30 min): 14.27 %ID/g
Biological distribution, Large intestines ([3]; 30 min): 0.68 %ID/organ
Biological distribution, Liver ([3]; 30 min): 5.45 %ID/g
Biological distribution, Lung ([3]; 30 min): 13.30 %ID/g
Biological distribution, Pancreas ([3]; 30 min): 5.02 %ID/g
Biological distribution, Small intestines ([3]; 30 min): 8.47 %ID/organ
Biological distribution, Spleen ([3]; 30 min): 3.45 %ID/g
Biological distribution, Stomach ([3]; 30 min): 2.75 %ID/organ
Biological distribution, Thyroid ([3]; 30 min): 0.04 %ID/organ
Biological distribution, Urine ([3]; 30 min): 3.69 %ID/organ
Biological distribution, Blood ([3]; 60 min): 0.74 %ID/g
Biological distribution, Brain ([3]; 60 min): 0.60 %ID/g
Biological distribution, Gallbladder ([3]; 60 min): 33.05 %ID/g
Biological distribution, Heart ([3]; 60 min): 1.00 %ID/g
Biological distribution, Kidney ([3]; 60 min): 9.42 %ID/g
Biological distribution, Large intestines ([3]; 60 min): 0.47 %ID/organ
Biological distribution, Liver ([3]; 60 min): 2.89 %ID/g
Biological distribution, Lung ([3]; 60 min): 5.01 %ID/g
Biological distribution, Pancreas ([3]; 60 min): 2.92 %ID/g
Biological distribution, Small intestines ([3]; 60 min): 11.03 %ID/organ
Biological distribution, Spleen ([3]; 60 min): 1.75 %ID/g
Biological distribution, Stomach ([3]; 60 min): 1.88 %ID/organ
Biological distribution, Thyroid ([3]; 60 min): 0.02 %ID/organ
Biological distribution, Urine ([3]; 60 min): 7.31 %ID/organ
accumulation in the kidneys [3, 5]: more than 20%
accumulation in the lungs [3, 5]: more than 20%
